# Measurements published in paper PMC4907642 (Journal of medicinal chemistry, 2015).
# Key:
# [1] = target: EML4-ALK G1202R transformed Ba/F3 cells (Homo sapiens, UniProt Q9HC35+Q9UM73, G1202R); details: 1 µM, result in words
# panel of 456 kinases = details: 1 µM
# Chain of EML4-ALK G1202R transformed Ba/F3 cells (Q9UM73 1058-1620 G1202R limits assumed, one chain of several): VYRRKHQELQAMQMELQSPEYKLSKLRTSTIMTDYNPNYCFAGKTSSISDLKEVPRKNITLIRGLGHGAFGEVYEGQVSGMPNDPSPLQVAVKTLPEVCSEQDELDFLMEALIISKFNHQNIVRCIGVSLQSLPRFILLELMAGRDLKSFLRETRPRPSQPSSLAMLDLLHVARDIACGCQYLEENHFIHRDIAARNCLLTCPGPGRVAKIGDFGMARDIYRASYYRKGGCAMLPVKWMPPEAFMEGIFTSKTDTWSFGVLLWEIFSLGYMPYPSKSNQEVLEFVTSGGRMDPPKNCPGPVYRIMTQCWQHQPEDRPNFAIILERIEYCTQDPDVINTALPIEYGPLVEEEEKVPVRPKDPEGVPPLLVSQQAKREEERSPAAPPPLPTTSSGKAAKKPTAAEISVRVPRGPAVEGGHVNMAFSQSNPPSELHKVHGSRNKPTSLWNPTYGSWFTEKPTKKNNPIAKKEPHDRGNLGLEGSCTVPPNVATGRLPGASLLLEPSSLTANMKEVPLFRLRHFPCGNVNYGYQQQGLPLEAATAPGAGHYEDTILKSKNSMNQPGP
Compound,single point inhibition of the G1202R mutant [1],KINOMEscan interactions mapped (panel of 456 kinases)
"CCc1cc2c(cc1-c1cn[nH]c1)C(C)(C)c1[nH]c3cc(C#N)ccc3c1C2=O [Compound 8, 9-ethyl-6,6-dimethyl-11-oxo-8-(1H-pyrazol-4-yl)-6,11-dihydro-5H-benzo[b]carbazole-3-carbonitrile]",quite potent,
"CCc1cc2c(cc1/C=C/CN1CCOCC1)C(C)(C)c1[nH]c3cc(C#N)ccc3c1C2=O [Compound 25, (E)-9-ethyl-6,6-dimethyl-8-(3-morpholinoprop-1-en-1-yl)-11-oxo-6,11-dihydro-5H-benzo[b]carbazole-3-carbonitrile]",no activity,
"CCc1cc2c(cc1-c1cccs1)C(C)(C)c1[nH]c3cc(C#N)ccc3c1C2=O [Compound 12, 9-ethyl-6,6-dimethyl-11-oxo-8-(thiophen-2-yl)-6,11-dihydro-5H-benzo[b]carbazole-3-carbonitrile]",much less inhibitory activity,
"CCc1cc2c(cc1-c1ccoc1)C(C)(C)c1[nH]c3cc(C#N)ccc3c1C2=O [Compound 11, 9-ethyl-8-(furan-3-yl)-6,6-dimethyl-11-oxo-6,11-dihydro-5H-benzo[b]carbazole-3-carbonitrile]",much less inhibitory activity,
"CCc1cc2c(cc1C#N)C(C)(C)c1[nH]c3cc(C#N)ccc3c1C2=O [Compound 21, 9-ethyl-6,6-dimethyl-11-oxo-6,11-dihydro-5H-benzo[b]carbazole-3,8-dicarbonitrile]",much less potent,
"CCc1cc2c(cc1-c1cnn(CCCN(C)C)c1)C(C)(C)c1[nH]c3cc(C#N)ccc3c1C2=O [Compound 32, 8-(1-(3-(dimethylamino)propyl)-1H-pyrazol-4-yl)-9-ethyl-6,6-dimethyl-11-oxo-6,11-dihydro-5H-benzo[b]carbazole-3-carbonitrile]",,39
"CCc1cc2c(cc1-c1cnn(C)c1)C(C)(C)c1[nH]c3cc(C#N)ccc3c1C2=O [Compound 7, 9-ethyl-6,6-dimethyl-8-(1-methyl-1H-pyrazol-4-yl)-11-oxo-6,11-dihydro-5H-benzo[b]carbazole-3-carbonitrile]",quite potent,
"CCc1cc2c(cc1C(=O)O)C(C)(C)c1[nH]c3cc(C#N)ccc3c1C2=O [Compound 24, 3-cyano-9-ethyl-6,6-dimethyl-11-oxo-6,11-dihydro-5H-benzo[b]carbazole-8-carboxylic acid]",much less potent,
"CCc1cc2c(cc1-c1cc[nH]n1)C(C)(C)c1[nH]c3cc(C#N)ccc3c1C2=O [Compound 9, 9-ethyl-6,6-dimethyl-11-oxo-8-(1H-pyrazol-3-yl)-6,11-dihydro-5H-benzo[b]carbazole-3-carbonitrile]",quite potent,
"CCc1cc2c(cc1-c1cnn(C(C)(C)C(=O)N(C)C)c1)C(C)(C)c1[nH]c3cc(C#N)ccc3c1C2=O [Compound 35, 2-(4-(3-cyano-9-ethyl-6,6-dimethyl-11-oxo-6,11-dihydro-5H-benzo[b]carbazol-8-yl)-1H-pyrazol-1-yl)-N,N,2-trime-thylpropanamide]",quite potent,
"CCc1cc2c(cc1-c1cnn(C(=O)N(C)C)c1)C(C)(C)c1[nH]c3cc(C#N)ccc3c1C2=O [Compound 36, 4-(3-cyano-9-ethyl-6,6-dimethyl-11-oxo-6,11-dihydro-5H-benzo[b]carbazol-8-yl)-N,N-dimethyl-1H-pyrazole-1-carboxamide]",quite potent,
"CCc1cc2c(cc1[C@H](O)CO)C(C)(C)c1[nH]c3cc(C#N)ccc3c1C2=O [Compound 23, (S)-8-(1,2-dihydroxyethyl)-9-ethyl-6,6-dimethyl-11-oxo-6,11-dihydro-5H-benzo[b]carbazole-3-carbonitrile]",much less potent,
"CCc1cc2c(cc1N1CCC(N(C)C)CC1)C(C)(C)c1[nH]c3cc(C#N)ccc3c1C2=O [Compound 17, 8-(4-(dimethylamino)piperidin-1-yl)-9-ethyl-6,6-dimethyl-11-oxo-6,11-dihydro-5H-benzo[b]carbazole-3-carbonitrile]",potent inhibition,
"CCc1cc2c(cc1N1CCN(C)CC1)C(C)(C)c1[nH]c3cc(C#N)ccc3c1C2=O [Compound 19, 9-ethyl-6,6-dimethyl-8-(4-methylpiperazin-1-yl)-11-oxo-6,11-dihydro-5H-benzo[b]carbazole-3-carbonitrile]",potent inhibition,
"CCc1cc2c(cc1[C@@H](O)CO)C(C)(C)c1[nH]c3cc(C#N)ccc3c1C2=O [Compound 22, (R)-8-(1,2-dihydroxyethyl)-9-ethyl-6,6-dimethyl-11-oxo-6,11-dihydro-5H-benzo[b]carbazole-3-carbonitrile]",much less potent,
